Measurements reported in patent US10730884B2, “Substituted indole compound derivatives as dengue viral replication inhibitors” (Janssen Pharmaceuticals, Inc., priority 2016, dated 2020).
pEC50: −log10 of the molar value. Read-outs that look alike come from different tables or passages of the source.

Columns and labels:
DENV-2 16681 strain = experiment: DENV-2 antiviral assay (eGFP-labeled virus, Vero cells); format: cell-based, Dengue virus; conditions: for pEC50: DENV-2 16681 eGFP, Vero cells, MOI 0.5, 3 days; for SI: SI=CC50/EC50, DENV-2 antiviral assay
Experimental: The antiviral activity of all the compounds of the invention was tested against the DENV-2 16681 strain which was labeled with enhanced green fluorescent protein (eGPF). The culture medium consists of minimal essential medium supplemented with 2% of heat-inactivated fetal calf serum, 0.04% gentamycin (50 mg/mL) and 2 mM of L-glutamine. Vero cells, obtained from ECACC, were suspended in culture medium and 25 μL was added to 384-well plates (2500 cells/well), which already contain the antiviral compounds. Typically, these plates contain a 5-fold serial dilution of 9 dilution steps of the test compound at 200 times the final concentration in 100% DMSO (200 nL). […] Finally, each plate contains wells which are assigned as virus controls (containing cells and virus in the absence of compound), cell controls (containing cells in the absence of virus and compound) and medium controls (containing medium in the absence of cells, virus and compounds). To the wells assigned as medium control, 25 μL of culture medium was added instead of Vero cells. Once the cells were added to the plates, the plates were incubated for 30 minutes at room temperature to allow the cells to distribute evenly within the wells. Next, the plates were incubated in a fully humidified incubator (37° C., 5% CO2) until the next day. Then, DENV-2 strain 16681, labeled with eGFP, was added at a multiplicity of infection (MOI) of 0.5. Therefore, 15 μL of virus suspension was added to all the wells containing test compound and to the wells assigned as virus control. In parallel, 15 μL of culture medium was added to the medium and cell controls. Next, the plates were incubated for 3 days in a fully humidified incubator (37° C., 5% CO2). At the day of the read out, the eGFP fluorescence was measured using an automated fluorescence microscope at 488 nm (blue laser). Using an in-house LIMS system, inhibition dose response curves for each compound were calculated and the half maximal effective concentration (EC50) was determined. Therefore, the percent inhibition (I) for every test concentration is calculated using the following formula: I=100*([…])/(SVC−SCC); ST, SCC and SVC are the amount of eGFP signal in the test compound, cell control and virus control wells, respectively. The EC50 represents the concentration of a compound at which the virus replication is inhibited with 50%, as measured by a 50% reduction of the eGFP fluorescent intensity compared to the virus control. The EC50 is calculated using linear interpolation (Table 1).

DENV-4 strain H241 = experiment: Tetravalent RT-qPCR assay, serotype 4; format: cell-based, Dengue virus; conditions: for pEC50: Dengue virus, DENV4, Vero, 72 h, RT-qPCR serotype 4 H241, Protocol A, Vero cells, day 3; for SI: RT-qPCR serotype 4 H241
Experimental: (§1) The antiviral activity of the compounds of the invention was tested against DENV-1 strain TC974#666 (NCPV), DENV-2 strain 16681, DENV-3 strain H87 (NCPV) and DENV-4 strain H241 (NCPV) in a RT-qPCR assay. Therefore, Vero cells were infected with either DENV-1, or -2, or -3, or -4 in the presence or absence of test compounds. At day 3 post-infection, the cells were lysed and cell lysates were used to prepare cDNA of both a viral target (the 3′UTR of DENV; Table 2) and a cellular reference gene (β-actin, Table 2). Subsequently, a duplex real time PCR was performed on a Lightcycler480 instrument. The generated Cp value is inversely proportional to the amount of RNA expression of these targets. Inhibition of DENV replication by a test compound result in a shift of Cp's for the 3′UTR gene. On the other hand, if a test compound is toxic to the cells, a similar effect on β-actin expression will be observed. The comparative ΔΔCp method is used to calculate EC50, which is based on the relative gene expression of the target gene (3′UTR) normalized with the cellular housekeeping gene (β-actin). In addition, CC50 values are determined based on the Cp values acquired for the housekeeping gene β-actin.
(§2) The culture medium consisted of minimal essential medium supplemented with 2% of heat-inactivated fetal calf serum, 0.04% gentamycin (50 mg/mL) and 2 mM of L-glutamine. Vero cells, obtained from ECACC, were suspended in culture medium and 75 μL/well was added in 96-well plates (10000 cells/well), which already contain the antiviral compounds. […] In addition, each plate contains wells which are assigned as virus controls (containing cells and virus in the absence of compound) and cell controls (containing cells in the absence of virus and compound). Once the cells were added in the plates, the plates were incubated in a fully humidified incubator (37° C., 5% CO2) until the next day. Dengue viruses serotype-1, 2, 3 and 4 were diluted in order to obtain a Cp of ˜22-24 in the assay. Therefore, 25 μL of virus suspension was added to all the wells containing test compound and to the wells assigned as virus control. In parallel, 25 μL of culture medium was added to the cell controls. Next, the plates were incubated for 3 days in a fully humidified incubator (37° C., 5% CO2). After 3 days, the supernatant was removed from the wells and the cells were washed twice with ice-cold PBS (˜100 μL). The cell pellets within the 96-well plates were stored at −80° C. for at least 1 day. Next, RNA was extracted using the Cells-to-CT™ lysis kit, according to the manufacturer's guideline (Life Technologies). The cell lysates can be stored at −80° C. or immediately used in the reverse transcription step.
(§3) In preparation of the reverse transcription step, mix A (table 3A) was prepared and 7.57 μL/well was dispensed in a 96-well plate. After addition of 5 μL of the cell lysates, a five minute denaturation step at 75° C. was performed (table 3B). Afterwards, 7.43 μL of mix B was added (table 3C) and the reverse transcription step was initiated (table 3D) to generate cDNA.
(§4) Finally, a RT-qPCR mix was prepared, mix C (table 4A), and 22.02 μL/well was dispensed in 96-well LightCycler qPCR plates to which 3 μL of cDNA was added and the qPCR was performed according to the conditions in table 4B on a LightCycler 480.
(§5) Using the LightCycler software and an in-house LIMS system, dose response curves for each compound were calculated and the half maximal effective concentration (EC50) and the half maximal cytotoxic concentration (CC50) were determined (Tables 5-8).

in vitro [1] = format: cell-based; conditions: African green monkey, CC50
Experimental: as §1, §2, §5

DENV-1 strain TC974#666 = experiment: Tetravalent RT-qPCR assay, serotype 1; format: cell-based, Dengue virus; conditions: for pEC50: Dengue virus, DENV1, Vero, 72 h, RT-qPCR serotype 1 TC974#666, Protocol A, Vero cells, day 3, read-out: EC50; for SI: RT-qPCR serotype 1 TC974#666
Experimental: as §1, §2, §3, §4, §5

DENV-2 strain 16681 = experiment: Tetravalent RT-qPCR assay, serotype 2; format: cell-based, Dengue virus; conditions: for pEC50: Dengue virus, DENV2, Vero, 72 h, RT-qPCR serotype 2 16681, Protocol A, Vero cells, day 3; for SI: RT-qPCR serotype 2 16681
Experimental: as §1, §2, §3, §4, §5

Vero cells [2] = conditions: African green monkey
DENV-3 strain H87 = experiment: Tetravalent RT-qPCR assay, serotype 3; format: cell-based, Dengue virus; conditions: for pEC50: Dengue virus, DENV3, Vero, 72 h, RT-qPCR serotype 3 H87, Protocol A, Vero cells, day 3, read-out: EC50; for SI: RT-qPCR serotype 3 H87
Experimental: as §1, §2, §3, §4, §5

in vitro [3] = conditions: African green monkey
DENV-2 = conditions: analogous DENV-2 antiviral assay, reported activity; cited from earlier work
Vero cells [4] = experiment: in vitro; format: cell-based; conditions: African green monkey, 3 days
Experimental: as §1, §2, §5

[5] = Dengue virus, DENV2, Vero, 72 h

COc1cc(NC(C(=O)c2c[nH]c3cc(OC(F)(F)F)c(C)cc23)c2ccc(F)cc2OC)cc(OCCO)c1 (single isomer, unassigned) [Compound 4B]
pEC50 (DENV-2 16681 strain): 8.09 | SI (DENV-2 16681 strain): 409 | pEC50 (DENV-4 strain H241): 6.52 | SI (DENV-4 strain H241): 8.1 | CC50 at 3 days (in vitro [1]): 3800 nM | pEC50 (DENV-1 strain TC974#666): 7.62 | SI (DENV-1 strain TC974#666): 128 | pEC50 (DENV-2 strain 16681): 8.18 | SI (DENV-2 strain 16681): 553 | CC50 (Vero cells [2]): 3300 nM | pEC50 (DENV-3 strain H87): 6.92 | SI (DENV-3 strain H87): 16

COc1cc(NC(C(=O)c2c[nH]c3cc(F)c(C)cc23)c2ccc(Cl)cc2OC)cc(OCCO)c1 (racemic) [Compound 9, 2-(4-chloro-2-methoxyphenyl)-1-(6-fluoro-5-methyl-1H-indol-3-yl)-2-((3-(2-hydroxyethoxy)-5-methoxyphenyl)amino)ethanone]
melting point: 177 °C | pEC50 (DENV-2 16681 strain; [5]): 8.92 | SI (DENV-2 16681 strain): 2480 | CC50 (in vitro [3]): 3100 nM

COc1cc(NC(C(=O)c2c[nH]c3c(C)cc(Cl)cc23)c2ccc(F)cc2OC)cc(OCCO)c1 (single isomer, unassigned) [Compound 1A]
pEC50 (DENV-2 16681 strain): 8.77 | SI (DENV-2 16681 strain): 2070 | pEC50 (DENV-4 strain H241): 6.66 | SI (DENV-4 strain H241): 8.7 | CC50 at 3 days (in vitro [1]): 2900 nM | pEC50 (DENV-1 strain TC974#666): 8.21 | SI (DENV-1 strain TC974#666): 461 | pEC50 (DENV-2 strain 16681): 8.49 | SI (DENV-2 strain 16681): 1080 | CC50 (Vero cells [2]): 3600 nM | pEC50 (DENV-3 strain H87): 7.41 | SI (DENV-3 strain H87): 49

COc1cc(NC(C(=O)c2c[nH]c3ccccc23)c2ccc(F)cc2)cc(OCCO)c1 (centres unmarked) [(350) of WO-2013/045516]
pEC50 (DENV-2): 8.00 | SI (DENV-2): 3462

COc1cc(NC(C(=O)c2c[nH]c3cc(OC)c(Cl)cc23)c2ccc(F)cc2OC)cc(OCCO)c1 (racemic) [Compound 2, 1-(5-chloro-6-methoxy-1H-indol-3-yl)-2-(4-fluoro-2-methoxyphenyl)-2-((3-(2-hydroxyethoxy)-5-methoxyphenyl)amino)ethanone]
melting point: 210 °C | pEC50 (DENV-2 16681 strain; [5]): 8.82 | SI (DENV-2 16681 strain): 4410 | CC50 (in vitro [3]): 6700 nM

COc1cc(NC(C(=O)c2c[nH]c3cc(OC)c(C)c(F)c23)c2ccc(Cl)cc2OC)cc(OCCO)c1 (single isomer, unassigned) [Compound 12B]
pEC50 (DENV-2 16681 strain): 9.59 | SI (DENV-2 16681 strain): >48400 | pEC50 (DENV-4 strain H241): 6.74 | SI (DENV-4 strain H241): >15 | CC50 at 3 days (in vitro [1]): > 2200 nM | CC50 (Vero cells [4]): > 2500 nM | pEC50 (DENV-1 strain TC974#666): 8.31 | SI (DENV-1 strain TC974#666): >508 | pEC50 (DENV-2 strain 16681): 9.60 | SI (DENV-2 strain 16681): >12200 | CC50 (Vero cells [2]): 4600 nM | pEC50 (DENV-3 strain H87): 7.70 | SI (DENV-3 strain H87): >106

COc1cc(NC(C(=O)c2c[nH]c3c(C)cc(Cl)cc23)c2ccc(F)cc2OC)cc(OCCO)c1 (racemic) [Compound 1, 1-(5-chloro-7-methyl-1H-indol-3-yl)-2-(4-fluoro-2-methoxyphenyl)-2-((3-(2-hydroxyethoxy)-5-methoxyphenyl)amino)ethanone]
melting point: 118 °C | pEC50 (DENV-2 16681 strain; [5]): 8.57 | SI (DENV-2 16681 strain): 1800 | CC50 (in vitro [3]): 4900 nM

COc1cc(NC(C(=O)c2c[nH]c3cc(OC)c(Cl)cc23)c2ccc(F)cc2OC)cc(OCCO)c1 (single isomer, unassigned) [Compound 2A]
pEC50 (DENV-2 16681 strain): 9.15 | SI (DENV-2 16681 strain): 6340 | pEC50 (DENV-4 strain H241): 6.64 | SI (DENV-4 strain H241): 9.1 | CC50 at 3 days (in vitro [1]): 2900 nM | pEC50 (DENV-1 strain TC974#666): 8.04 | SI (DENV-1 strain TC974#666): 350 | pEC50 (DENV-2 strain 16681): 9.00 | SI (DENV-2 strain 16681): 3350 | CC50 (Vero cells [2]): 4500 nM | pEC50 (DENV-3 strain H87): 7.47 | SI (DENV-3 strain H87): 90

COc1cc(NC(C(=O)c2c[nH]c3ccc(C)cc23)c2ccc(F)cc2OC)cc(OCCO)c1 (racemic) [Compound 5, 2-(4-fluoro-2-methoxyphenyl)-2-((3-(2-hydroxyethoxy)-5-methoxyphenyl)amino)-1-(5-methyl-1H-indol-3-yl)ethanone]
melting point: 199 °C | pEC50 (DENV-2 16681 strain; [5]): 8.32 | SI (DENV-2 16681 strain): 3190 | CC50 (in vitro [3]): 14000 nM

COc1cc(NC(C(=O)c2c[nH]c3cc(F)c(C)cc23)c2ccc(F)cc2OC)cc(OCCO)c1 (racemic) [Compound 3, 2-(4-fluoro-2-methoxyphenyl)-1-(6-fluoro-5-methyl-1H-indol-3-yl)-2-((3-(2-hydroxyethoxy)-5-methoxyphenyl)amino)ethanone]
melting point: 197 °C | pEC50 (DENV-2 16681 strain; [5]): 8.46 | SI (DENV-2 16681 strain): 1140 | CC50 (in vitro [3]): 4000 nM
